According to publication PMC8274846, “Biogenic nanoporous silicon carrier improves the efficacy of buparvaquone against resistant visceral leishmaniasis” (PLoS Neglected Tropical Diseases, 2021):

Assays:
[1] = system: axenic L.donovani amastigotes, GE1 (isolated strain resistant to SSG); experiment: Antileishmanial activity against axenic amastigotes, GE1; format: cell-based; conditions: for Resistance index (RI), GE1: IC50 against drug resistant strain / IC50 against wild-type strain (AG83), axenic; for IC50: Leishmania donovani
Procedure: (§1) L. donovani AG83 (MHOM/IN/83/AG83) and GE1 (MHOM/IN/80/GE1F8R) promastigotes were routinely grown in medium 199 supplemented with 10% heat-inactivated fetal bovine serum, 2 mM L-glutamine, 20 mM HEPES, 100 U/mL penicillin, and 100 μg/mL streptomycin at 25°C. L. donovani amastigote forms were grown and maintained as described previously. Axenic amastigote forms were derived from promastigote forms by culturing them in MMA/20 (medium for axenic amastigote) at pH 5.5 [22]. Axenically grown amastigotes were maintained by sub-culture of 10^5 parasites/ml repeated every fifth day under experimental conditions of 37°C temperature and 5% CO2 environment.
(§2) The antileishmanial activity of the drug specimens (BPQ+NP, BPQ, SSG, AmB, PMM, and MF) against the axenic amastigotes were evaluated based on the IC50 value, which is the concentration of the specimen required to kill 50% of the parasites. The parasites were first seeded into 96-well plates at a density of 1x10^5 amastigotes/well in 200 μL medium. Then, 10 μL of the drug candidates at various concentrations were added and the final volume was adjusted to […] medium. The number of amastigotes in the wells treated with each specimen were compared to those in the untreated control wells.
(§3) Microscopic examinations were performed in duplicates with various concentrations of pure drugs or buparvaquone-loaded nanoparticles and also for control wells. The amastigotes cells were counted for all cases using a hemocytometer. The mean of the control wells was considered as 100% survival. The counts in the treated wells at various concentrations were converted into percentages. Giemsa-stained slides of the macrophages infected with amastigotes were observed under a light microscope. Then the numbers of amastigotes and infected macrophages per 100 cells were counted for each slide. The percentage (%) of inhibition was calculated by using the equation %ofinhibition=C−T/C×100, (2) where C is the number of amastigotes/infected macrophages per 100 cells in the control well and T is the number of amastigotes/infected macrophages per 100 cells in the drug-treated well.
(§4) Origin version 6.1 software was used to calculate IC50 and CC50 values by plotting a graph of the percentage of inhibition at various concentrations of all the observations.

[2] = system: intracellular L.donovani amastigotes, wild-type AG83, in macrophages; experiment: Antileishmanial activity against intracellular amastigotes, wild-type AG83; format: cell-based; conditions: for Selectivity index (SI), AG83: CC50/IC50, intracellular; for IC50: Leishmania donovani, Macrophage, mean ± σ, n = 4, read-out: Cellular IC50, Wild-type AG83
Procedure: (§5) The intracellular antileishmanial activity was evaluated based on the reduction in the amastigote numbers in the infected macrophages after the treatment. The method was adapted from our previous work. Briefly, 4x10^6 amastigotes in 500 μL of RPMI-1640 suspension were added to each well containing macrophages with the macrophage: parasite ratio of 1:10. The plates were incubated for 4 h at 37°C in 5% CO2. After the parasite internalization period, cells were washed at least twice with fresh media to remove non-phagocytosed parasites. Then, the drug specimen suspended in 1 mL RPMI-1640 was added, and the samples were incubated for 72 h at 37°C in 5% CO2. The medium was aspirated, the coverslips were removed, and then fixed with methanol and air-dried. After staining with Giemsa, 100 cells on the glass discs were counted. Three independent experiments in quadruplicate for each concentration were performed.
as §3, §4

[3] = Cytotoxicity studies (CC50) on peritoneal macrophages; format: cell-based, BALB/c mice; conditions: BALB/c, mouse, resident peritoneal macrophages, 48 h exposure, mean ± σ, n = 3
Procedure: (§6) Resident peritoneal macrophages were isolated from BALB/c mice. For the isolation, 1.5 mL of sterile thioglycolate medium was injected into the peritoneal cavity to induce non-infectious inflammation. Animals were sacrificed after 5 days, and peritoneal exudates were harvested by intraperitoneal lavage. Cold RPMI (6 mL) was injected into the peritoneal cavity. After 10 min, the injected fluid was withdrawn by the same syringe. From each animal, approximately 3-4 mL of medium was recovered. After centrifugation at 200 g for 15 min, macrophages were collected. […] The cytotoxicity of the drug specimen was evaluated by the CC50 value, which is the concentration required to kill 50% of the host cell population. Macrophages were first isolated from peritoneal lavage as described above. The cells were seeded into 96-well plates at 1x10^6 cells/mL in 200 μL of RPMI-1640 supplemented with 10% FCS, 20 mM L-glutamine, 16 mM NaHCO3, penicillin (50 U/mL) and streptomycin (50 μg/ mL) at 37°C in 5% CO2 for 4 h for adherence. To remove the non-adherent cells, each plate was washed two times with phosphate buffer saline (pH 7.2). […] Microscopic examinations were performed in duplicates with various concentrations of pure drugs or buparvaquone-loaded nanoparticles and also for control wells. The amastigotes cells were counted for all cases using a hemocytometer. The mean of the control wells was considered as 100% survival. The counts in the treated wells at various concentrations were converted into percentages. Giemsa-stained slides of the macrophages infected with amastigotes were observed under a light microscope. Then the numbers of amastigotes and infected macrophages per 100 cells were counted for each slide. The percentage (%) of inhibition was calculated by using the equation %[…]×100, (2) where C is the number of amastigotes/infected macrophages per 100 cells in the control well and T is the number of amastigotes/infected macrophages per 100 cells in the drug-treated well.

[4] = system: axenic L.donovani amastigotes, AG83-R, SSG (SSG resistant strain generated from AG83); experiment: microbe, parasite or virus in culture; format: cell-based; conditions: for Resistance index (RI), AG83-R, SSG: IC50 against drug resistant strain / IC50 against wild-type strain (AG83), axenic; for IC50: Leishmania donovani, read-out: Axenic IC50, AG83-R, SSG
Procedure: as §1
(§7) SSG and PMM resistant L. donovani amastigotes were generated by using the methods described previously. […] The cultures were stabilized for three subcultures. Then, the drug concentration was increased until the cell population decreased approximately to 20% for each batch. Finally, when 90% cell population of the initial count was reduced, the phenotype generated was plated on medium 199 agar plates containing the same drug concentration, and a single colony was picked for culture in medium 199 liquid media at the same drug concentration. The cultured promastigotes are converted into amastigotes as described above. Drug pressure was withdrawn, and stability was checked at one, two, and four months. SSG and PMM resistant phenotype clones were labeled as AG83-R,SSG and AG83-R, PMM, respectively.
as §2, §3, §4

[5] = system: axenic L.donovani amastigotes, AG83-R, PMM (PMM resistant strain generated from AG83); experiment: microbe, parasite or virus in culture; format: cell-based; conditions: for Resistance index (RI), AG83-R, PMM: IC50 against drug resistant strain / IC50 against wild-type strain (AG83), axenic
Procedure: as §1, §7, §2, §3, §4

[6] = system: intracellular L.donovani amastigotes, AG83-R, SSG, in macrophages; experiment: microbe, parasite or virus in culture; format: cell-based; conditions: for Selectivity index (SI), AG83-R, SSG: CC50/IC50, intracellular; for IC50: Leishmania donovani, Macrophage, read-out: Cellular IC50, AG83-R, SSG
Procedure: as §7, §5, §3, §4

[7] = system: intracellular L.donovani amastigotes, AG83-R, PMM, in macrophages; experiment: microbe, parasite or virus in culture; format: cell-based; conditions: for Selectivity index (SI), AG83-R, PMM: CC50/IC50, intracellular
Procedure: as §7, §5, §3, §4

[8] = system: axenic L.donovani amastigotes, wild-type AG83; experiment: Antileishmanial activity against axenic amastigotes, wild-type AG83; format: cell-based; conditions: axenic amastigotes, mean ± σ, n = 4; for IC50: Leishmania donovani
Procedure: as §1, §2, §3, §4

[9] = system: intracellular L.donovani amastigotes, GE1, in macrophages; experiment: Antileishmanial activity against intracellular amastigotes, GE1; format: cell-based; conditions: for Selectivity index (SI), GE1: CC50/IC50, intracellular; for IC50: Leishmania donovani, Macrophage, mean ± σ, n = 4, read-out: Cellular IC50, GE1
Procedure: as §5, §3, §4

[10] = system: wild-type AG83 promastigotes; experiment: IC50 against wild-type AG83 promastigotes (used for generation of resistant strains); format: cell-based, L. donovani; conditions: medium 199
Procedure: as §7

[11] = system: resident peritoneal macrophages; experiment: Cytotoxicity studies (CC50) on peritoneal macrophages; format: cell-based, BALB/c mice; conditions: 48 h exposure, values for SSG given in μg/ml
Procedure: as §6

[12] = axenic amastigotes, mean ± σ, n = 4
[13] = intracellular amastigotes, 72 h
[14] = axenic amastigotes, values for SSG given in μg/ml, mean ± σ, n = 4
[15] = intracellular amastigotes, 72 h, values for SSG given in μg/ml

SMILES | Resistance index (RI), GE1 [1] | IC50 [1, 12] [nM] | Selectivity index (SI), AG83 [2] | IC50 [2, 13] [nM] | CC50 at 48 h [3] [nM] | Resistance index (RI), AG83-R, SSG [4] | IC50 [4] [nM] | Resistance index (RI), AG83-R, PMM [5] | Selectivity index (SI), AG83-R, SSG [6] | IC50 ([6]; 72 h) [nM] | Selectivity index (SI), AG83-R, PMM [7] | IC50 [8] [nM] | Selectivity index (SI), GE1 [9] | IC50 [9, 13] [nM] | other results
CCCCCCCCCCCCCCCCOP(=O)([O-])OCC[N+](C)(C)C [MF, miltefosine] | 1.1 ± 0.3 | 500 ± 100 | 100 ± 10 | 400 ± 100 | 36000 ± 4000 | 1.3 ± 0.2 | 600 ± 100 | 1.1 ± 0.2 | 60 ± 5 | 700 ± 100 | 70 ± 10 | 500 ± 100 | 80 ± 10 | 500 ± 100 | –
O.O.O.O.O.O.O.O.O.O=C([O-])[C@@H]1[O][Sb](=[O])([O][Sb]2(=[O])[O][C@H]([C@H](O)CO)[C@H](O)[C@H](C(=O)[O-])[O]2)[O][C@H]([C@H](O)CO)[C@@H]1O.[Na+].[Na+].[Na+] (some centres unmarked) [SSG, sodium stibogluconate] | 4 ± 1 | – | 15 ± 4 | – | – | 38 ± 4 | – | 32 ± 3 | 1 ± 1 | – | 2 ± 1 | – | 4 ± 2 | – | Axenic IC50, GE1 [1, 14]: 14 ± 2 µg/mL; Cellular IC50, Wild-type AG83 [2, 15]: 1.8 ± 0.2 µg/mL; IC50 against the parasite [10]: 3.6 µg/mL; CC50 [11]: 27 ± 2 µg/mL; Axenic IC50, AG83-R, SSG [4, 14]: 133 ± 15 µg/mL; Axenic IC50, AG83-R, PMM [5, 14]: 113 ± 15 µg/mL; Cellular IC50, AG83-R, SSG [6, 15]: 22 ± 2 µg/mL; Cellular IC50, AG83-R, PMM [7, 15]: 20 ± 2 µg/mL; Axenic IC50, Wild-type AG83 ([8]; values for SSG given in μg/ml): 3.5 ± 0.7 µg/mL; Cellular IC50, GE1 [9, 15]: 7.5 ± 0.3 µg/mL
C[C@@H]1[C@H](O)[C@@H](C)/C=C/C=C/C=C/C=C/C=C/C=C/C=C/[C@H](O[C@@H]2O[C@H](C)[C@@H](O)[C@H](N)[C@@H]2O)C[C@@H]2O[C@](O)(C[C@@H](O)C[C@@H](O)[C@H](O)CC[C@@H](O)C[C@@H](O)CC(=O)O[C@H]1C)C[C@H](O)[C@H]2C(=O)O [AmB, amphotericin B] | 1.1 ± 0.2 | 300 ± 100 | 80 ± 10 | 200 ± 100 | 15000 ± 2000 | 1.1 ± 0.1 | 300 ± 100 | 1.2 ± 0.2 | 70 ± 10 | 200 ± 100 | 70 ± 10 | 200 ± 100 | 90 ± 10 | 200 ± 100 | IC50 ([5]; Leishmania donovani, read-out: Axenic IC50, AG83-R, PMM): 300 ± 100 nM; IC50 ([7]; Leishmania donovani, Macrophage, 72 h, read-out: Cellular IC50, AG83-R, PMM): 300 ± 100 nM
